Activity calls are given as the source filed them. The calls are words filed in the database; no cut-off is given here.
Key:
[1] = target: T1, Tyrosyl-DNA phosphodiesterase 1 (Homo sapiens, UniProt Q9NUW8); assay: Inhibition of recombinant TDP1 (unknown origin) assessed as substrate cleavage using 5'-Cy5-GATCTAAAAGACTT-pY-3' DNA substrate measured after 15 mins by gel-based assay
[2] = tested on: HCT-116; assay: Radiosensitizing activity in human HCT-116 cells assessed as induction of 2 GY ionizing radiation (IR) induced cell killing effect; format: functional, cell-based
[3] = target: T1, Tyrosyl-DNA phosphodiesterase 1; assay: Inhibition of recombinant TDP1 (unknown origin) assessed as substrate cleavage using 5'-Cy5-GATCTAAAAGACTT-pY-3' DNA substrate at 111 uM measured after 15 mins by gel-based assay
[4] = tested on: HCT-116; assay: Cytotoxicity against human HCT116 cells assessed as cell killing at 0.1 uM relative to control; format: functional
[5] = tested on: HCT-116; assay: Radiosensitizing activity in human HCT-116 cells assessed as sensitization of 2 GY ionizing radiation (IR) induced cell killing effect at 0.2 uM relative to control; format: functional
[6] = tested on: HCT-116; assay: Cytotoxicity against human HCT116 cells assessed as cell killing at 0.2 uM relative to control; format: functional
[7] = tested on: HCT-116; assay: Synergistic cytotoxicity against human HCT116 cells assessed as combination index at 0.5 uM incubated for 48 hrs in presence of 2GY ionizing radiation (IR); format: functional

T1 sequence (Q9NUW8 whole entry): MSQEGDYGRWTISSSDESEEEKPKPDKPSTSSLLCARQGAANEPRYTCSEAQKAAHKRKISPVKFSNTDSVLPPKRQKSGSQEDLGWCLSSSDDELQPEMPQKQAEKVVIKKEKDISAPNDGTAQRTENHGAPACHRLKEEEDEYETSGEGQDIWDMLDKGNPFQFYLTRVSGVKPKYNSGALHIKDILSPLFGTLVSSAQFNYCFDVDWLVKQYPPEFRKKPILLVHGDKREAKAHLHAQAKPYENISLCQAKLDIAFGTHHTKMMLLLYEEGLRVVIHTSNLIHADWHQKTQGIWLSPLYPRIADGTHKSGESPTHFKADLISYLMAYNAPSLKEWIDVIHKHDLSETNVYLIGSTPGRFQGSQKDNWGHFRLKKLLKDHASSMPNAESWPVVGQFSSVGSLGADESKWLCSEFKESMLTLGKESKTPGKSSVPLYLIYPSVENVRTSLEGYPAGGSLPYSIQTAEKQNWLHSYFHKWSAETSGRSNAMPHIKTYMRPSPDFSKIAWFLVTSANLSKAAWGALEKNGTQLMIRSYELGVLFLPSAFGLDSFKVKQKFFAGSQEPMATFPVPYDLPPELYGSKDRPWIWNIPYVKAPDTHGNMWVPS

Row | IC50 [1] [µM] | inhibition [3] | Compound | also measured
1 | 6.4 | – | CCN(CC)CCCOc1cc2c(=O)n(CCN(C)C)c3c4cc5c(cc4ccc3c2cc1OC)OCO5 | –
2 | 43 | – | CCN(CC)CCOc1cc2c(cc1OC)c(=O)n(CCN(C)C)c1c3cc4c(cc3ccc21)OCO4 | –
3 | 33 | – | COc1cc2c(=O)n(CCN(C)C)c3c4cc5c(cc4ccc3c2cc1OCCn1ccnc1)OCO5 | –
4 | 23 | – | CCCCN(CCCC)CCOc1cc2c(cc1OC)c(=O)n(CCN(C)C)c1c3cc4c(cc3ccc21)OCO4 | –
5 | 1.6 | – | COc1cc2c(=O)n(CCN(C)C)c3c4cc5c(cc4ccc3c2cc1OCCCNC12CC3CC(CC(C3)C1)C2)OCO5 | Activity [2]: Active
6 | – | inactive | COc1cc2c(cc1OCCn1ccnc1)c(=O)n(CCN(C)C)c1c3cc4c(cc3ccc21)OCO4 | –
7 | 20 | – | CCN(CC)CCOc1cc2c(=O)n(CCN(C)C)c3c4cc5c(cc4ccc3c2cc1OC)OCO5 | –
8 | 4.7 | – | COc1cc2c(=O)n(CCN(C)C)c3c4cc5c(cc4ccc3c2cc1OCCCN(C)C)OCO5 | Activity [2]: Active
9 | 3.6 | – | COc1cc2c(=O)n(CCN(C)C)c3c4cc5c(cc4ccc3c2cc1OCCCN1CCCC1)OCO5 | Activity [2]: Active
10 | 46 | – | COc1cc2c(cc1OCCN1CCN(C)CC1)c(=O)n(CCN(C)C)c1c3cc4c(cc3ccc21)OCO4 | –
11 | 10 | – | CCN(CC)CCCOc1cc2c(cc1OC)c(=O)n(CCN(C)C)c1c3cc4c(cc3ccc21)OCO4 | Activity [2]: Active
12 | 5.7 | – | COc1cc2c(=O)n(CCN(C)C)c3c4cc5c(cc4ccc3c2cc1OCCCN1CCSCC1)OCO5 | Activity [2]: Active; Activity [4]: 19%; Activity [5]: 93%; Activity [6]: 73%; CI [7]: <0.3
13 | – | inactive | COc1cc2c(=O)n(CCN(C)C)c3c4cc5c(cc4ccc3c2cc1OCCc1ccccc1)OCO5 | –
14 | – | inactive | COc1cc2c(=O)n(CCN(C)C)c3c4cc5c(cc4ccc3c2cc1OCC(=O)N1CCOCC1)OCO5 | –
15 | – | inactive | COc1cc2c(=O)n(CCN(C)C)c3c4cc5c(cc4ccc3c2cc1OCCCc1ccccc1)OCO5 | –
16 | – | inactive | COc1cc2c(cc1OCCN1CCOCC1)c(=O)n(CCN(C)C)c1c3cc4c(cc3ccc21)OCO4 | –
17 | – | inactive | COc1cc2c(=O)n(CCN(C)C)c3c4cc5c(cc4ccc3c2cc1OCCN1CCSCC1)OCO5 | –
18 | – | inactive | COc1cc2c(=O)n(CCN(C)C)c3c4cc5c(cc4ccc3c2cc1OCC(=O)N(C)C)OCO5 | –
19 | – | inactive | COc1cc2c(=O)n(CCN(C)C)c3c4cc5c(cc4ccc3c2cc1OCCN1CCCC1)OCO5 | –

Row | IC50 [1] [µM] | inhibition [3] | Compound | also measured
20 | 59 | – | COc1cc2c(cc1OCCN(C)C)c(=O)n(CCN(C)C)c1c3cc4c(cc3ccc21)OCO4 | –
21 | 31 | – | CCCCN(CCCC)CCCOc1cc2c(cc1OC)c(=O)n(CCN(C)C)c1c3cc4c(cc3ccc21)OCO4 | –
22 | – | inactive | COc1cc2c(=O)n(CCN(C)C)c3c4cc5c(cc4ccc3c2cc1OCCCn1ccnc1)OCO5 | –
23 | 16 | – | COc1cc2c(cc1OCCN1CCCCC1)c(=O)n(CCN(C)C)c1c3cc4c(cc3ccc21)OCO4 | –
24 | 29 | – | COc1cc2c(cc1OCCN1CCCC1)c(=O)n(CCN(C)C)c1c3cc4c(cc3ccc21)OCO4 | –
25 | – | inactive | COc1cc2c(cc1OCCCn1ccnc1)c(=O)n(CCN(C)C)c1c3cc4c(cc3ccc21)OCO4 | –
26 | 9.3 | – | COc1cc2c(cc1OCCCN(C)C)c(=O)n(CCN(C)C)c1c3cc4c(cc3ccc21)OCO4 | Activity [2]: Active
27 | 7.8 | – | COc1cc2c(=O)n(CCN(C)C)c3c4cc5c(cc4ccc3c2cc1OCCCN1CCN(C)CC1)OCO5 | Activity [2]: Active
28 | 17 | – | COc1cc2c(cc1OCCCN1CCOCC1)c(=O)n(CCN(C)C)c1c3cc4c(cc3ccc21)OCO4 | –
29 | – | inactive | COc1cc2c(=O)n(CCN(C)C)c3c4cc5c(cc4ccc3c2cc1OCCCN1CCOCC1)OCO5 | –
30 | 6.9 | – | COc1cc2c(=O)n(CCN(C)C)c3c4cc5c(cc4ccc3c2cc1OCCCN1CCCCC1)OCO5 | –
31 | 5.4 | – | COc1cc2c(cc1OCCCN1CCCC1)c(=O)n(CCN(C)C)c1c3cc4c(cc3ccc21)OCO4 | Activity [2]: Active
32 | 12 | – | COc1cc2c(=O)n(CCN(C)C)c3c4cc5c(cc4ccc3c2cc1OCCN(C)C)OCO5 | –
33 | 6 | – | COc1cc2c(=O)n(CCN(C)C)c3c4cc5c(cc4ccc3c2cc1OCCN1CCN(C)CC1)OCO5 | Activity [2]: Active
34 | – | inactive | CCN(CC)C(=O)COc1cc2c(cc1OC)c(=O)n(CCN(C)C)c1c3cc4c(cc3ccc21)OCO4 | –
35 | 7.4 | – | COc1cc2c(cc1OCCCN1CCCCC1)c(=O)n(CCN(C)C)c1c3cc4c(cc3ccc21)OCO4 | Activity [2]: Active
36 | 22 | – | COc1cc2c(=O)n(CCN(C)C)c3c4cc5c(cc4ccc3c2cc1OCCN1CCCCC1)OCO5 | –
37 | 31 | – | COc1cc2c(cc1OCCCN1CCN(C)CC1)c(=O)n(CCN(C)C)c1c3cc4c(cc3ccc21)OCO4 | –
